In one experiment the test system is IDO protein. Description: Inhibitory effect on IDO protein expression, Western blotting. The format is cell-based. To be noted: human stomach cancer line NCI-N87; IFNγ 100 U/mL; 0.001, 0.01, 0.1 and 1 μM; 24 hours; FIG. 1. How it is done:
Protein expression was detected by a Western blotting method. A human stomach cancer line NCI-N87 (CRL-5822) was purchased from American Type Culture Collection (ATCC). The cells were cultured in RPMI1640 (Wako Pure Chemical Industries, Ltd.) medium supplemented with 10% fetal bovine serum (FBS). The cells were seeded in a 6-well plate (#140675, Nunc) at 1×10^6 cells per well. The cells were cultured in a 5% CO2 incubator at 37° C. for 24 hours, INFγ (PeproTech, Inc.) at 100 U/mL and test substances [tanespimycin (Biotrend), ganetespib, BIIBO21 and Compound 1] in amounts of 0.001 μM, 0.01 μM, 0.1 μM and 1 μM each were then added, and the cells were further cultured for 24 hours. After the culturing, the cells were washed with ice-cooled PBS, and the cells were then lysed with a cytolytic agent. The cell lysate solution was centrifuged, and the soluble fraction was then removed, and subjected to thermal denaturation, followed by protein separation by SDS-PAGE.
10-fold dilution of TBST (Santa Cruz) with Milli-Q water was used as a washing solution, and the TBST solution containing 5% Blocking One (nacalai tesque) was used as an antibody diluting solution.
After completion of SDS-PAGE, the protein was transferred to a PVDF membrane (Trans-Blot Turbo Midi PVDF Transfer Pack, Biorad) by using a blotting device (Trans-Blot Turbo Transfer System, Biorad). The membrane after the transfer was blocked by incubation at room temperature for 60 minutes or more with Blocking One. […] The PVDF membrane was washed three times with the washing solution, and then immersed in SuperSignal West Pico Chemiluminescent Substrate (Thermo Scientific) for detection of GAPDH, or SuperSignal West Dura Extended Duration Substrate (Thermo Scientific) for detection of IDO, and chemiluminescence was detected by using Image Analyzer Amersham Imager 600QC (GE Healthcare Japan Corporation).
On the technique in general: A western blot detects proteins with antibodies after separation by electrophoresis.

Experiment [1] relates to cells expressing IDO due to addition of IFNγ (IDO-positive cells). As to the kind of experiment: Suppressive effect on growth in IDO-positive cells (all four lines, result in words). Particulars: GIST-T1, HCC827, NCI-H1975, NCI-N87 with IFNγ 100 U/mL; 0.001-10 μM; 72 hours; FIG. 3. In kind it is cell-based, human. How it is done:
(§1) Human stomach cancer line NCI-N87 (CRL-5822), human lung cancer line NCI-H1975 (CRL-5908) and human lung cancer line HCC827 (CRL-2868) were purchased from ATCC, and human gastrointestinal stromal tumor line GIST-T1 (GIST01) was purchased from Cosmo Bio Co., Ltd. NCI-N87, NCI-H1975 and HCC827 were cultured in RPM11640 (Wako Pure Chemical Industries, Ltd.) medium supplemented with 10% FBS, and GIST-T1 was cultured in DMEM (Wako Pure Chemical Industries, Ltd.) medium supplemented with 10% FBS. The IDO protein and GAPDH were detected in the same manner as in Example 1 described above.
The amount of ATP generated from surviving cells was determined by CellTiter-Glo2.0 Assay (# G9243, Promega Corporation) to evaluate the cell growth inhibition ability of test substance. […] The intensity of luminescence was measured using a microplate reader (EnSpire™ Multimode Plate Reader, PerkinElmer Japan Co., Ltd.), and used as an index of the number of surviving cells in each well. Using the intensity of luminescence of a group not treated with a test substance (control group) as a control, the cell survival rate (%) was calculated by using the following equation. […]

In a further experiment the test system is NCI-H1975. As to the kind of experiment: Cell growth inhibition, CellTiter-Glo2.0 Assay, IFNγ added. In kind it is cell-based. Particulars: Homo sapiens, IFNγ 100 U/mL, 72 hours, number of surviving cells reduced to 50% of control. Here is the method: as §1
(§2) The amount of ATP generated from surviving cells was determined by CellTiter-Glo2.0 Assay (# G9243, Promega Corporation) to evaluate the cell growth inhibition ability of test substance. The cells of GIST-T1, HCC827, NCI-H1975 and NCI-N87 were seeded in 96-well plates (#165305, Thermo Scientific) at 1×10^4 (NCI-N87), 2×10^3 (HCC827 and HCI-H1975) and 3×10^3 (GIST-T1) per well, and cultured in a 5% CO2 incubator at 37° C. for 24 hours. After the culturing for 24 hours, INFγ (PeproTech) at 100 U/mL and a test substance (Compound 1) in amounts of 0.001 μM, 0.003 μM, 0.01 μM, 0.03 μM, 0.1 μM, 0.3 μM, 1 μM, 3 μM and 10 μM each were added, and further cultured for 72 hours. Equivalent amount of CellTiter-Glo2.0 Assay reagent as the medium was added to each well, the mixture was stirred for 2 minutes using a shaker under shading condition, and the plate was then left to stand at room temperature for about 10 minutes. The intensity of luminescence was measured using a microplate reader (EnSpire™ Multimode Plate Reader, PerkinElmer Japan Co., Ltd.), and used as an index of the number of surviving cells in each well. Using the intensity of luminescence of a group not treated with a test substance (control group) as a control, the cell survival rate (%) was calculated by using the following equation. From the obtained survival rate, the concentration (IC50 (μM)), at which the number of surviving cells is reduced to 50% of the control, was determined by a curve fitting regression analysis tool using Regression Analysis Tool XLfit5.3.0.8 (IDBS Ltd.).
(§3) Cell survival rate=T/C×100
(§4) T: Amount of luminescence in wells with a test substance
(§5) C: Amount of luminescence in wells with no test substance
(ATP-based viability assays read luminescence as a measure of living cells.)

A further experiment relates to GIST-T1. Described as above. In kind it is cell-based. Particulars: Homo sapiens, GISTT1, IFNγ 100 U/mL, 72 hours, number of surviving cells reduced to 50% of control. How it is done: as §1, §2, §3, §4, §5
A further experiment has as its system HCC827. The experiment is described as above. In kind it is cell-based. Particulars: Homo sapiens, IFNγ 100 U/mL, 72 hours, number of surviving cells reduced to 50% of control. Here is the method:
as §1, §2, §3, §4, §5

A further experiment relates to NCI-N87. The description is as above. In kind it is cell-based. Particulars: Homo sapiens, IFNγ 100 U/mL, 72 hours, number of surviving cells reduced to 50% of control. How it is done:
as §1, §2, §3, §4, §5

Take `CC(C)c1cc(-c2n[nH]c(=O)n2-c2ccc3c(ccn3C)c2)c(O)cc1O` [ganetespib]: the “inhibitory effect on IDO expression” value with IDO protein is listed as “inhibitory effect on IDO expression in a concentration-dependent manner”.

For the compound `COc1c(C)cnc(Cn2cnc3c(Cl)nc(N)nc32)c1C` [BIIBO21], the “inhibitory effect on IDO expression” value in the experiment on IDO protein is reported as “inhibitory effect on IDO expression in a concentration-dependent manner”.

`CCc1cc(C(N)=O)ccc1-n1nc(C(C)C)c2c(-n3cnc(-c4cnn(C)c4)c3)ccnc21` [Compound 1, 3-ethyl-4-{3-isopropyl-4-(4-(1-methyl-1H-pyrazol-4-yl)-1H-imidazol-1-yl)-1H-pyrazolo[3,4-b]pyridin-1-yl}benzamide]: the “inhibitory effect on IDO expression” value with IDO protein is listed as “inhibitory effect on IDO expression in a concentration-dependent manner”. Further, the “suppressive effect on cell growth” value in experiment [1] was “suppressive effect on cell growth in a concentration-dependent manner”. Further, the IC50 (in general, the point on the concentration scale where inhibition reaches its midpoint) came to 810 nM in the experiment with NCI-H1975, 270 nM with GIST-T1, 1420 nM in the experiment on HCC827 and 380 nM with NCI-N87.

For the origin of these results see patent US20200281904A1, “PROPHYLACTIC AND/OR THERAPEUTIC AGENT FOR DISEASES INVOLVING IDO EXPRESSION” (TAIHO PHARMACEUTICAL CO., LTD., priority 2017, published 2020).
